Results from patent US20250129021A1, “SMALL MOLECULE PROTEIN SYNTHESIS MODULATORS” (Interdict Bio, Inc., priority 2023, published 2025).

Assays:
Assay type in all cases: biochemical
MYC = test: In vitro transcription-translation (IVTT) assay, MYC reporter; conditions: HeLa S3 lysate, 2 hrs at 30° C.
How it was run: (§1)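 Reporter: mCherry, P2A, then 3×FLAG-target peptide-sfGFP fusion, IRES-initiated; HeLa S3 lysate IVTT; cpd dilutions 30 μM−0.1 μM half-log in 100% DMSO (dilution-plate conc); DNA added last; 2 h, 30° C; PBS quench.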

CCND1 = test: In vitro transcription-translation (IVTT) assay, CCND1 reporter; conditions: HeLa S3 lysate, sfGFP/mCherry ratio, 2 hrs at 30° C.
How it was run: as §1

ALK = test: In vitro transcription-translation (IVTT) assay, ALK reporter; conditions: HeLa S3 lysate, sfGFP/mCherry ratio, 2 hrs at 30° C.
How it was run: as §1

KRAS G12D = test: In vitro transcription-translation (IVTT) assay, KRAS G12D reporter; conditions: HeLa S3 lysate, sfGFP/mCherry ratio, 2 hrs at 30° C.
How it was run: as §1

MCL-1 = test: In vitro transcription-translation (IVTT) assay, MCL-1 reporter; conditions: HeLa S3 lysate, sfGFP/mCherry ratio, 2 hrs at 30° C.
How it was run: as §1

CCNTB1 = test: In vitro transcription-translation (IVTT) assay, CCNTB1 reporter; conditions: HeLa S3 lysate, sfGFP/mCherry ratio
Procedure: In vitro transcription-translation assay setup: Each assay includes a master mix containing lysate and shared components, a 96-well plate containing compound titrations for testing, a 96-well DNA plate with reporter constructs to be tested, 96-well skirted PCR plates, and 96-well flat-bottom, black, fluorescent assay plates. Reaction materials setup: (A) Master mix—15 mL conical tube (3 mL of HeLa S3 Lysate described above; 0.6 mL of ThermoFisher Accessory Proteins (#88882); 1.2 ml of ThermoFisher Reaction Mix (#88882); 0.54 mL of nuclease-free Water); (B) 96-Well Master Mix+Compound Plate (Half-log dilutions (30 μM−0.1 μM) of 4 compounds of interest are prepared in 100% DMSO); 96-Well DNA Plate (Five DNA constructs are plated into single columns within the plate. Row 1 of the column contains nuclease free H2O, all other wells contain 110 ng/μL plasmid DNA). Reactions are started by mixing 155 μL of master mix and 3.5 μL of compound serial dilutions, then 9.1 μL of master mix+compound mixture is aliquoted across 5 96-well plates. Reactions begin with final addition of 2 μL of DNA for a 11.1 μL reaction volume in each well. The entire plate is sealed, and incubated for 2 hrs at 30° C. After 2 hrs, quench the assay using 45 μL of PBS, and transfer 50 μL to a flat-bottom black microplate Quantify the sfGFP and mCherry signals from each well on each plate, taking 3 reads of each plate, and perform data analysis below.
In vitro transcription-translation assay data analysis: Each plate is read three times in channels for both sfGFP and mCherry signals. The average signal across these 3 reads is then calculated for further analysis. Control wells containing no DNA reporter are subtracted from reporter wells in the same column to remove auto-fluorescence of the lysate. Then, the ratio of sfGFP/mCherry is calculated per well, and these ratios are averaged across the triplicate experiments on the same plate. Finally, the ratio of each titration concentration is normalized to the no drug control to create the normalized stalling metric. The error on this measurement is determined by propagating error through the averaging and normalization steps. Values are plotted and fit for IC50 determination for each test sequence and titration of compound.

IC50 (MYC; sfGFP/mCherry ratio)	IC50 (CCND1)	IC50 (ALK)	IC50 (KRAS G12D)	IC50 (MCL-1)	IC50 (CCNTB1)	SMILES	IC50 (MYC; IVTT assay, MYC reporter, normalized sfGFP/mCherry ratio, half-log dilutions 30 μM-0.1 μM)
10 to 20 µM	> 30 µM	< 10 µM	> 30 µM	–	–	COc1ccc(C[C@H]2NC[C@H](O)[C@H]2OC(=O)NCCc2nc3ccc(Cl)cc3[nH]2)cc1 [V187821, (2R,3S,4S)-4-hydroxy-2-[(4-methoxyphenyl)methyl]pyrrolidin-3-yl N-[2-(5-chloro-3H-1,3-benzodiazol-2-yl)ethyl]carbamate]	–
< 10 µM	10 to 20 µM	< 10 µM	20 to 30 µM	–	–	COc1ccc(C[C@H]2NC[C@H](O)[C@H]2OC(=O)NCc2ncc[nH]2)cc1 [V187815, (2R,3S,4S)-4-hydroxy-2-[(4-methoxyphenyl)methyl]pyrrolidin-3-yl N-(1H-imidazol-2-ylmethyl)carbamate]	–
20 to 30 µM	> 30 µM	< 10 µM	> 30 µM	–	–	COc1ccc(C[C@H]2NC[C@H](O)[C@H]2OC(=O)NCCc2ncc[nH]2)cc1 [V187816, (2R,3S,4S)-4-hydroxy-2-[(4-methoxyphenyl)methyl]pyrrolidin-3-yl N-[2-(1H-imidazol-2-yl)ethyl]carbamate]	–
< 10 µM	< 10 µM	< 10 µM	< 10 µM	< 10 µM	–	COc1ccc(C[C@H]2NC[C@H](O)[C@H]2OC(=O)NCCCCCO)cc1 [V187587, (2R,3S,4S)-4-hydroxy-2-[(4-methoxyphenyl)methyl]pyrrolidin-3-yl N-(5-hydroxypentyl)carbamate]	–
< 10 µM	< 10 µM	< 10 µM	< 10 µM	< 10 µM	–	COc1ccc(C[C@H]2NC[C@H](O)[C@H]2OC(=O)NCc2cocn2)cc1 [V187767, (2R,3S,4S)-4-hydroxy-2-[(4-methoxyphenyl)methyl]pyrrolidin-3-yl N-(1,3-oxazol-4-ylmethyl)carbamate]	–
10 to 20 µM	20 to 30 µM	< 10 µM	> 30 µM	–	–	COc1ccc(C[C@H]2NC[C@H](O)[C@H]2OC(=O)NCCc2nc3ccccc3[nH]2)cc1 [V187820, (2R,3S,4S)-4-hydroxy-2-[(4-methoxyphenyl)methyl]pyrrolidin-3-yl N-[2-(1H-1,3-benzodiazol-2-yl)ethyl]carbamate]	–
< 10 µM	< 10 µM	< 10 µM	< 10 µM	< 10 µM	–	COc1ccc(C[C@H]2NC[C@H](O)[C@H]2OC(=O)NCCCN)cc1 [V187591]	–
< 10 µM	< 10 µM	< 10 µM	< 10 µM	–	–	C#CCNC(=O)O[C@@H]1[C@@H](O)CN[C@@H]1Cc1ccc(OC)cc1 [V0074, (2R,3S,4S)-4-hydroxy-2-[(4-methoxyphenyl)methyl]pyrrolidin-3-yl N-(prop-2-yn-1-yl)carbamate]	–
–	–	–	–	–	< 10 µM	O=C(NCC[C@H]1CCCN1)O[C@@H]1[C@@H](O)CN[C@@H]1Cc1ccc(-c2ccc(F)c(F)c2)cc1 [V192037, (2R,3S,4S)-2-({3′,4′-difluoro-[1,1′-biphenyl]-4-yl}methyl)-4-hydroxypyrrolidin-3-yl N-{2-[(2R)-pyrrolidin-2-yl]ethyl}carbamate]	10 to 20 µM
> 30 µM	–	> 30 µM	> 30 µM	–	–	COCc1nnc(NC(=O)O[C@@H]2[C@@H](O)CN[C@@H]2Cc2ccc(OC)cc2)s1 [V187730, (2R,3S,4S)-4-hydroxy-2-[(4-methoxyphenyl)methyl]pyrrolidin-3-yl N-[5-(methoxymethyl)-1,3,4-thiadiazol-2-yl]carbamate]	–
–	< 10 µM	< 10 µM	< 10 µM	< 10 µM	–	COc1ccc(C[C@H]2NC[C@H](O)[C@H]2OC(=O)NCCCCO)cc1 [V187586, (2R,3S,4S)-4-hydroxy-2-[(4-methoxyphenyl)methyl]pyrrolidin-3-yl N-(4-hydroxybutyl)carbamate]	–
10 to 20 µM	–	< 10 µM	20 to 30 µM	–	–	COc1ccc(C[C@H]2NC[C@H](O)[C@H]2OC(=O)Nc2n[nH]c(C)n2)cc1 [V187657, (2R,3S,4S)-4-hydroxy-2-[(4-methoxyphenyl)methyl]pyrrolidin-3-yl N-(5-methyl-1H-1,2,4-triazol-3-yl) carbamate]	–
20 to 30 µM	> 30 µM	< 10 µM	> 30 µM	–	–	COc1ccc(C[C@H]2NC[C@H](O)[C@H]2OC(=O)NCCc2ncc(C)[nH]2)cc1 [V187818, (2R,3S,4S)-4-hydroxy-2-[(4-methoxyphenyl)methyl]pyrrolidin-3-yl N-[2-(4-methyl-3H-imidazol-2-yl)ethyl]carbamate]	–
> 30 µM	–	> 30 µM	> 30 µM	–	–	COc1ccc(CC2NCC(O)C2OC(=O)NC2CC(N)C2)cc1 [V187681, (2R,3S,4S)-4-hydroxy-2-[(4-methoxyphenyl)methyl]pyrrolidin-3-yl N-[(1s,3s)-3-aminocyclobutyl]carbamate]	–
> 30 µM	–	> 30 µM	> 30 µM	–	–	COc1ccc(C[C@H]2NC[C@H](O)[C@H]2OC(=O)NCCN(C(C)C)C(C)C)cc1 [V187436, (2R,3S,4S)-4-hydroxy-2-[(4-methoxyphenyl)methyl]pyrrolidin-3-yl N-[2-(diisopropylamino)ethyl]carbamate]	–

SMILES	IC50 (MYC; sfGFP/mCherry ratio)	IC50 (CCND1)	IC50 (ALK)	IC50 (KRAS G12D)	IC50 (MCL-1)	IC50 (CCNTB1)	IC50 (MYC; IVTT assay, MYC reporter, normalized sfGFP/mCherry ratio, half-log dilutions 30 μM-0.1 μM)
COC1CCC(CC2NCC(O)C2OC(O)NCCOCC2CNNN2)CC1 (stereo not shown) [V187723, 4-[hydroxy({[2-(1,2,3-triazolidin-4-ylmethoxy)ethyl]amino})methoxy]-5-[(4-methoxycyclohexyl)methyl]pyrrolidin-3-ol; trifluoroacetic acid]	10 to 20 µM	20 to 30 µM	< 10 µM	> 30 µM	–	–	–
COc1ccc(C[C@H]2NC[C@H](O)[C@H]2OC(=O)NCCc2ccon2)cc1 [V187700, (2R,3S,4S)-4-hydroxy-2-[(4-methoxyphenyl)methyl]pyrrolidin-3-yl N-[2-(1,2-oxazol-3-yl)ethyl]carbamate; trifluoroacetic acid]	< 10 µM	< 10 µM	< 10 µM	< 10 µM	< 10 µM	–	–
COc1ccc(C[C@H]2NC[C@H](O)[C@H]2OC(=O)NCCCCCn2ccnc2)cc1 [V187636, (2R,3S,4S)-4-hydroxy-2-[(4-methoxyphenyl)methyl]pyrrolidin-3-yl N-[5-(imidazol-1-yl)pentyl]carbamate; trifluoroacetic acid]	< 10 µM	–	< 10 µM	< 10 µM	< 10 µM	–	–
COCCN(CCNC(=O)O[C@@H]1[C@H](O)CN[C@H]1Cc1ccc(OC)cc1)CCOC [V187538, (2S,3S,4R)-4-hydroxy-2-[(4-methoxyphenyl)methyl]pyrrolidin-3-yl N-{2-[bis(2-methoxyethyl)amino]ethyl}carbamate; trifluoroacetic acid]	10 to 20 µM	–	< 10 µM	> 30 µM	–	–	–
COc1ccc(C[C@H]2NC[C@H](O)[C@H]2OC(=O)NCC[C@@H]2NC(=O)C3(CCNCC3)NC2=O)cc1 [V187327, (2R,3S,4S)-4-hydroxy-2-[(4-methoxyphenyl)methyl]pyrrolidin-3-yl N-{2-[(3S)-2,5-dioxo-1,4,9-triazaspiro[5.5]undecan-3-yl]ethyl}carbamate; trifluoroacetic acid]	> 30 µM	–	< 10 µM	> 30 µM	–	–	–
CCN(CC)Cc1nnc(NC(=O)O[C@@H]2[C@@H](O)CN[C@@H]2Cc2ccc(OC)cc2)s1 [V187552, (2R,3S,4S)-4-hydroxy-2-[(4-methoxyphenyl)methyl]pyrrolidin-3-yl N-{5-[(diethylamino)methyl]-1,3,4-thiadiazol-2-yl}carbamate; trifluoroacetic acid]	> 30 µM	–	> 30 µM	> 30 µM	–	–	–
COc1ccc(C[C@H]2NC[C@H](O)[C@H]2OC(=O)NNC(=O)Cc2ccccc2)cc1 [V187741, N′-({[(2R,3S,4S)-4-hydroxy-2-[(4-methoxyphenyl)methyl]pyrrolidin-3-yl]oxy}carbonyl)-2-phenylacetohydrazide; trifluoroacetic acid]	< 10 µM	–	< 10 µM	10 to 20 µM	–	–	–
